# Test results as given in patent US20060041022A1, “Treatment of amyotrophic lateral sclerosis with nimesulide” (priority 2002, published 2006).
# Read-outs that look alike come from different tables or passages of the source.
# Key:
# [1] = system: SOD1 mutant mice
# Method: (§1) Mice Studies were performed on 8 week old female mice overexpressing mutated human superoxide dismutase (codon 93 glycine→alanine G93A (TgN[SOD1-G93A]1Gur(Gurney et al., 1994, Science 264(5166):1772-1775) Jackson Laboratory, Bar Harbor, Me.; “SDO1 mice”) and their wild type littermates. Mice were housed on a 12 hour day/light cycle and (beginning at 45 d of age) allowed ad libitum access to either nimesulide (NMS)-supplemented (19 g/10 kg) chow, delivering ˜[…] per day to the animal, or, as a control, plain NIH-07 formula cold press chow processed into identical ½ inch pellets (Zeigler Bros Inc, Garners, Pa.). Genotyping was conducted at 21 days of age as described in Gurney et al., 1994, Science 264(5166):1772-1775.
# (§2) Rotarod and Grid Walking Tests. To assess balance, coordination and muscle strength mice were tested on the accelerating rotarod (7650 Ugo Basile Biol. Res. App., Italy) and grid walking tests. […] For the grid walking test, animals were placed into the distal end of a walled chamber (15 cm W×60 cm L, 20 cm high walls and a wire mesh bottom) suspended 1 meter above the floor. The number of foot misses (entire paw and portion of limb pokes through the wire mesh) while crossing a distance of 60 cm was recorded.
# [2] = for effect on weight: SOD1 or wild type mice, nimesulide diet vs normal diet, weighed weekly
# Method: as §1
# Health/Neurologic Status. To assess health status mice were weighed weekly and examined for changes in lacrimation/salivation, palpebral closure, ear twitch and pupillary responses, whisker orienting, postural and righting reflexes and Body Condition Score (BCS) (Ullman-Cullere 1999). Finally, a general pathological examination was conducted at time of sacrifice.
# [3] = system: 4.8 kDa protein (also 5.3 and 5.7 kDa proteins) in spinal cord of SOD1 mice
# Method: as §1
# (§3) Pathology examination. To evaluate molecular changes during the period of therapeutic efficacy of NMS, a sub group of mice were sacrificed by cervical dislocation 95-105 d of age. Blood, brain and lumbar spinal cord samples were then rapidly harvested and prepared for analysis.
# [4] = system: Prostaglandin E2; conditions: SOD1 (or WT) mice, prophylactic nimesulide in the diet, FIG. 4B
# Method: as §1, §3
# Nimesulide and Prostaglandin E2. […] Prostaglandin-E2 expression in the left caudal hemisphere of the brain (including substantia nigra, and motor cortex) was measured by immuno-assay (Cayman Ann Arbor, Mich.), which was performed as follows. […]
# [5] = system: SOD1 mutant mice; remark: listed apart in the source
# Method: as §1, §2
# [6] = geriatric patients, periods greater than two years; cited from earlier work
# [7] = in vivo; conditions: for Kp: female, mouse, brain (cerebral cortex parenchyma) relative to serum, oral
# Method: as §1, §3
# Nimesulide and Prostaglandin E2. […] Prostaglandin-E2 expression in the left caudal hemisphere of the brain (including substantia nigra, and motor cortex) was measured by immuno-assay (Cayman Ann Arbor, Mich.), which was performed as follows. Briefly, pulverized brain tissue stored in liquid N2 was homogenized in 0.1M phosphate-buffered saline (containing 1 mM EDTA and 10 μM indomethacin), mixed with an equal volume of ethanol, and centrifuged. The supernatant was diluted with 50 mM acetic buffer and purified through an affinity column (Cayman). The column was equilibrated with column buffer (0.1M phosphate-buffered saline, 7.7 mM NaN3, 0.5 M […]) followed by UltraPure water, the supernatant was then eluted from the 4 ml column by adding the elution solution and allowing it to pass through the packing material. The eluate was then evaporated and re-dissolved in enzyme-linked immunoassay buffer, applied to a 96-well plate pre-coated with goat anti-mouse IgG and incubated with PGE2 monoclonal antibody and (recovery tracer) for 18 hr at 4° C. […]
# [8] = SOD1 mice on NMS diet, control diet mean onset at 108 days
smiles,measurement,setting,value
"CS(=O)(=O)Nc1ccc([N+](=O)[O-])cc1Oc1ccccc1 [nimesulide, 4-nitro-2-phenoxymethanesulfonanilide]",age until which motor skill integrity was exhibited,[1]; [8],124 days of age
same,motor ability maintained beyond SOD1 mice fed control diet,"[1]; SOD1 mice, nimesulide diet, n=6, P<0.05 on days 113, 115, 122, 124, FIG. 2",10 days
same,effect on weight,[2],No detectable difference
same,effect on weight,[2]; listed as NMS,no effect
same,health/neurologic tests,"[2]; all groups, SOD1 groups showed decreased BCS and impaired reflexes after hind limb paralysis",unremarkable
same,level of approximately 4.8 kDa protein (negatively charged at pH 9) in spinal cord,"[3]; SOD1 mice with NMS treatment, prior to onset of motor impairment, FIGS. 3A and B",regulated back to control levels
same,levels of approximately 5.3 and 5.7 kDa proteins,"[3]; SOD1 mice, lumbar spinal cord, proteins increase with disease progression",decrease
same,PG-E2 content,[4],decreased
same,onset of impairment relative to untreated counterparts,"[5]; NMS-treated SOD1 mice, rotarod and grid walking tests",significant delay
same,age until which motor skill integrity was exhibited,[5]; [8],120 days of age
same,delay in the onset of motor impairment,"[5]; SOD1 mice, nimesulide-supplemented chow vs control diet, n=6, P<0.05, FIG. 1",10 days
same,tolerability,[6],well tolerated
same,nimesulide concentration in serum,"[7]; delivery through feeding, 2-3 months treatment, at onset of bilateral hind-limb paralysis, FIG. 4A",approximately 30 μM
same,Kp,[7]; TgN[SOD1-G93A]1Gur (SOD1-G93A transgenic),~0.1
same,Kp,[7],0.1
